Experimental data published in patent US20120270819A1, “USE OF COMPOUNDS WITH SGLT-1/SGLT-2 INHIBITOR ACTIVITY FOR PRODUCING MEDICAMENTS FOR TREATMENT OF BONE DISEASE” (SANOFI, priority 2009, published 2012).

target: T1, human sodium-dependent glucose transporter 2 (SGLT2, SLC5A2) (Homo sapiens, UniProt P31639); assay: Inhibition of methyl-D-glucopyranoside uptake in CHO-TRex-hSGLT2 cells; format: cell-based; settings: recombinant SGLT2; read-out: IC50 SGLT 2
T1 construct: Bases 21 to 2039 correspond to the complete coding region of human SGLT2; expressed in transfected cells; host or cells: CHO-TREx cells (Invitrogen), pcDNA4/TO vector, tetracycline-induced
T1 sequence (P31639 1-672): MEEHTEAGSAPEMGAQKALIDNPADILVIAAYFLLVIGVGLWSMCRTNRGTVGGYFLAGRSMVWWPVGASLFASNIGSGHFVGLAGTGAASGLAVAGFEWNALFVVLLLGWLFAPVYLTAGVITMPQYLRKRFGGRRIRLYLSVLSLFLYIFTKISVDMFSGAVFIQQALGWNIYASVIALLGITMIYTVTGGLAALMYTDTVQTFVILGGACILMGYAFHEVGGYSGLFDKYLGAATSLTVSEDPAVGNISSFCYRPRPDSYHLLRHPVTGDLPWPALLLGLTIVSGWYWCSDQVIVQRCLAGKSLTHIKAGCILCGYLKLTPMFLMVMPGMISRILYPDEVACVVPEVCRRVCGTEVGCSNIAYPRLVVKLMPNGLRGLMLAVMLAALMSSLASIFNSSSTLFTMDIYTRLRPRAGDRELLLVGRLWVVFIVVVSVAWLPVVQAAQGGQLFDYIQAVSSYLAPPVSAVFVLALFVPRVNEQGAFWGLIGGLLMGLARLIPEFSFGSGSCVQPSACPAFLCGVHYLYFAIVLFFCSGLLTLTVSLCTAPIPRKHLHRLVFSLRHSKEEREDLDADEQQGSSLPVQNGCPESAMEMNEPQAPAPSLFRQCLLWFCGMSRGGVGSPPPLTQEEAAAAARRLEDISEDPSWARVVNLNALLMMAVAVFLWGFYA
Excerpt: Inhibition of the Transport Activity of the Human Sodium-Dependent Glucose Transporter 2 (SGLT2, SLC5A2) In Vitro
1. Cloning of an Expression Vector for Human SGLT2
The cDNA for human SGLT2 was introduced into the pcDNA4/TO vector (Invitrogen) by means of standard methods of molecular biology as described in Sambrook et al. (Molecular Cloning, A Laboratory Manual, Second Edition). […] Bases 21 to 2039 correspond to the complete coding region of human SGLT2.
2. Production of a Recombinant Cell Line with Inducible Expression of Human SGLT2
The expression vector for human SGLT2 was introduced into CHO-TREx cells (Invitrogen) by means of FuGene6 lipofection (Roche). To select single cell clones, 600 μg/ml of Zeocin (Invitrogen) was added to the cell culture medium (nutrient mixture F-12 (Ham), (Invitrogen) supplemented with 10% fetal calf serum (FBS Gold, PAA), 10 μg/ml Blasticidin S(CN Biosciences), 100 units/ml penicillin, 100 units/ml streptomycin). The functionality of the single cell clones resulting from the selection was tested via their uptake activity for radiolabeled methyl- -D-glucopyranoside. That cell clone with the highest uptake activity for methyl- -D-glucopyranoside, referred to hereinafter as CHO-TRex-hSGLT2, was selected for the further experiments and cultured further in the presence of 600 μg/ml Zeocin.
3. Measurement of the Inhibiting Action of Test Substances on the Uptake of Methyl- -D-glucopyranoside (-MDG)
CHO-TRex-hSGLT2 cells were seeded in cell culture medium in a concentration of 50 000 cells per well in Cytostar-T scintillating 96-well plates (Amersham Biosciences) and cultivated for 24 h. The expression of the recombinant human SGLT2 was induced by adding 1 μg/ml tetrazykline for a further 24 h. For -MDG uptake experiments, the cells were washed with PBS and then starved at 37° C. in starvation medium (PBS supplemented with 10% fetal calf serum) for 1 hour. […] After an incubation time of 120 min at 37° C., the reaction was stopped by adding 50 μl/well of 10 mM methyl- -D-glucopyranoside in transport assay buffer (4° C.), and the radioactivity taken up into the cells was determined in a MicroBeta Scintillation Microplate Reader (Wallac). The half-maximum inhibiting action of the test substances (IC50 value) was determined as follows:
4. […] This is the measurement in the absence of substance, measured in sodium-containing transport assay buffer.
5. […] This is the measurement in the absence of substance, measured in sodium-free transport assay buffer (140 mM choline chloride, 2 mM potassium chloride, 1 mM magnesium chloride, 1 mM calcium chloride, 10 mM HEPES/Tris, pH7.5). […]

| IC50 | SMILES |
| --- | --- |
| 34 nM | COc1ccc(Cc2ccccc2OC2OC(CO)C(F)C(O)C2O)cc1 (stereo not shown) [Example 1 of formula III] |
| 318 nM | CC(C)c1[nH]nc(OC2OC(CO)C(F)C(O)C2O)c1Cc1ccc(CCCC(=O)NC(CO)(CO)CO)cc1 (stereo not shown) [Example 21 of formula I] |
| 88 nM | COc1ccc(Cc2c(OC3OC(CO)C(F)C(O)C3O)n[nH]c2C(F)(F)F)cc1 (stereo not shown) [Example 5 of formula II] |
| 29 nM | CCc1ccc(Cc2ccccc2OC2OC(CO)C(F)C(O)C2O)cc1 (stereo not shown) [Example 20 of formula III] |
